pIC50: −log10 of the molar value. Counter-ions that a name gives are not always drawn.

For the first experiment, the system named is P. Falciparum NF54. The experiment is described as follows: Plasmodium falciparum in vitro assay ([3H]-hypoxanthine incorporation). As to conditions: P. Falciparum NF54, erythrocytic stages in human red blood cells, 50% human serum. The format is cell-based. The procedure, abridged: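 Activity against the blood stages of Plasmodium falciparum growing in human red blood cells was measured by how much [3H]-hypoxanthine the parasites took up. Filters were dried, sealed in plastic foil containing 10 mL of scintillation fluid, and read on a Betaplate liquid scintillation counter. IC50 values came from sigmoidal inhibition curves fitted in Microsoft Excel.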
Usually pIC50 stands for the IC50 on a negative log10 scale, so that one unit is a factor of ten. Consider `CC(C)CCN1C[C@H]2CC(N(Cc3ccc(N(C)c4ccncc4)cc3)C(=O)/C=C/c3ccc(C(F)(F)F)cc3)C[C@H]2C1` (single isomer, unassigned) [Example 68], for which the negative-log IC50 (pIC50) is 7.77.

The same experiment, now with this note: Plasmodium falciparum, Erythrocyte, P. Falciparum NF54, erythrocytic stages in human red blood cells, 50% human serum.
Turning to `CN(c1ccncc1)c1ccc(CN(C(=O)/C=C/c2ccc(C(F)(F)F)cc2)[C@@H]2CCN(C3CCCC3)C2)cc1` [Example 113, (E)-N-((R)-1-Cyclopentyl-pyrrolidin-3-yl)-N-[4-(methyl-pyridin-4-yl-amino)-benzyl]-3-(4-trifluoromethyl-phenyl)-acrylamide], the pIC50 was 7.11.

For `Cc1cc(Nc2ccc(CN(C(=O)/C=C/c3ccc(C(F)(F)F)cc3)C3CCN(C(C)C)CC3)cc2)ccn1` [Example 186, (E)-N-(1-Isopropyl-piperidin-4-yl)-N-[4-(2-methyl-pyridin-4-ylamino)-benzyl]-3-(4-trifluoromethyl-phenyl)-acrylamide], the pIC50 is 7.37.

`CN(c1ccncc1)c1ccc(CN(C(=O)/C=C/c2ccc(C(F)(F)F)cc2)[C@H]2CCN(C3CCCC3)C[C@H]2F)cc1` (racemic) [Example 76, (±)-(E)-N-(cis-1-cyclopentyl-3-fluoropiperidin-4-yl)-N-(4-(methyl(pyridin-4-yl)amino)benzyl)-3-(4-(trifluoromethyl)phenyl)acrylamide] showed a pIC50 of 7.30.

The compound `COc1ccc(CN2CCC(N(Cc3ccc(N(C)c4ccncc4)cc3)C(=O)/C=C/c3ccc(C(F)(F)F)cc3)CC2)cc1` [Example 13, (E)-N-[1-(4-Methoxy-benzyl)-piperidin-4-yl]-N-[4-(methyl-pyridin-4-yl-amino)-benzyl]-3-(4-trifluoromethyl-phenyl)-acrylamide] had a pIC50 of 7.30.

In turn, `CC(C)CCN1CC[C@H](N(Cc2ccc(N(C)c3ccncc3)cc2)C(=O)/C=C/c2ccc(C(F)(F)F)cc2)[C@H](F)C1` (racemic) [Example 77, (±)-(E)-N-(cis-3-fluoro-1-isopentylpiperidin-4-yl)-N-(4-(methyl(pyridin-4-yl)amino)benzyl)-3-(4-(trifluoromethyl)phenyl)acrylamide] gave a pIC50 of 7.28.

Regarding `Cc1cc(Nc2cccc(CN(C(=O)/C=C/c3ccc(C(F)(F)F)cc3)C3CCN(C(C)C)CC3)c2)ccn1` [Example 122, (E)-N-(1-Isopropyl-piperidin-4-yl)-N-[3-(2-methyl-pyridin-4-ylamino)-benzyl]-3-(4-trifluoromethyl-phenyl)-acrylamide formate], the pIC50 is 7.37.

`CN(c1ccncc1)c1ccc(CN(C(=O)/C=C/c2ccc(C(F)(F)F)cc2)C2CCN(C3CCCC3)CC2)cc1` [Example 5, (E)-N-(1-Cyclopentyl-piperidin-4-yl)-N-[4-(methyl-pyridin-4-yl-amino)-benzyl]-3-(4-trifluoromethyl-phenyl)-acrylamide]: the pIC50 is 7.96.

As to `CN1CCC(N(C)c2ccc(CN(C(=O)/C=C/c3ccc(C(F)(F)F)cc3)C3CCN(Cc4ccccc4)CC3)cc2)CC1` [Example 177, (E)-N-(1-Benzyl-piperidin-4-yl)-N-{4-[methyl-(1-methyl-piperidin-4-yl)-amino]-benzyl}-3-(4-trifluoromethyl-phenyl)-acrylamide], the pIC50 is 6.62.

The compound `CN(c1ccncc1)c1ccc(CN(C(=O)/C=C/c2ccc(S(C)(=O)=O)cc2)C2CCN(Cc3ccccc3)CC2)cc1` [Example 162, (E)-N-(1-Benzyl-piperidin-4-yl)-3-(4-methanesulfonyl-phenyl)-N-[4-(methyl-pyridin-4-yl-amino)-benzyl]-acrylamide] showed a pIC50 of 6.80.

`CN(c1ccncc1)c1ccc(CN(C(=O)/C=C/c2ccc(C(F)(F)F)cc2)[C@H]2CCCN(C3CCCC3)C2)cc1` [Example 58, (S,E)-N-(1-cyclopentylpiperidin-3-yl)-N-(4-(methyl(pyridin-4-yl)amino)benzyl)-3-(4-(trifluoromethyl)phenyl)acrylamide] gave a pIC50 of 6.83.

In the case of `O=C(/C=C/c1ccc(C(F)(F)F)cc1)N(Cc1ccc(Nc2ccccc2)cc1)C1CCN(C2CCCC2)CC1` [Example 93, (E)-N-(1-Cyclopentyl-piperidin-4-yl)-N-(4-phenylamino-benzyl)-3-(4-trifluoromethyl-phenyl)-acrylamide], the pIC50 is 6.38.

In turn, `CN(c1ccncc1)c1ccc(CN(C(=O)/C=C/c2ccc(C(F)(F)F)cc2)C2CCN(CCC(F)(F)F)CC2)cc1` [Example 16, (E)-N-[4-(Methyl-pyridin-4-yl-amino)-benzyl]-3-(4-trifluoromethyl-phenyl)-N-[1-(3,3,3-trifluoro-propyl)-piperidin-4-yl]-acrylamide] gave a pIC50 of 6.81.

For `CN(c1ccncc1)c1ccc(CN(C(=O)/C=C/c2ccc(C(F)(F)F)cc2)C2CCN(Cc3cnn(-c4ccccc4)c3)CC2)cc1` [Example 18, (E)-N-[4-(Methyl-pyridin-4-yl-amino)-benzyl]-N-[1-(1-phenyl-1H-pyrazol-4-ylmethyl)-piperidin-4-yl]-3-(4-trifluoromethyl-phenyl)-acrylamide], the pIC50 was 7.29.

The compound `CN1CCC(N(C)c2ccc(CN(C(=O)/C=C/c3ccc(C(F)(F)F)cc3)C3CCN(C4CCCC4)CC3)cn2)CC1` [Example 106, (E)-N-(1-Cyclopentyl-piperidin-4-yl)-N-{6-[methyl-(1-methyl-piperidin-4-yl)-amino]-pyridin-3-ylmethyl}-3-(4-trifluoromethyl-phenyl)-acrylamide] had a pIC50 of 6.46.

Regarding `CN(c1ccncc1)c1ccc(CN(C(=O)/C=C/c2ccc(C(F)(F)F)cc2)C2CCN(CC3CC3)CC2)cc1` [Example 9, (E)-N-(1-Cyclopropylmethyl-piperidin-4-yl)-N-[4-(methyl-pyridin-4-yl-amino)-benzyl]-3-(4-trifluoromethyl-phenyl)-acrylamide], the pIC50 is 7.57.

The compound `Cc1cc(Nc2ccc(CN(CC3(O)CCN(C)CC3)C(=O)/C=C/c3ccc(C(F)(F)F)cc3)cc2)ccn1` [Example 175, (E)-N-(4-Hydroxy-1-methyl-piperidin-4-ylmethyl)-N-[4-(2-methyl-pyridin-4-ylamino)-benzyl]-3-(4-trifluoromethyl-phenyl)-acrylamide] gave a pIC50 of 6.48.

For the compound `Cc1ccc(Nc2ccc(CN(C(=O)/C=C/c3ccc(C(F)(F)F)cc3)C3CCN(C4CCCC4)CC3)cc2)nc1` [Example 98, (E)-N-(1-Cyclopentyl-piperidin-4-yl)-N-[4-(5-methyl-pyridin-2-ylamino)-benzyl]-3-(4-trifluoromethyl-phenyl)-acrylamide], the pIC50 was 6.43.

Take `CN(c1ccncc1)c1ccc(CN(C(=O)/C=C/c2ccc(C(F)(F)F)cc2)C2CCN(C3CCCC3)C2)cc1` (racemic) [Example 99, (±)-(E)-N-(1-Cyclopentyl-pyrrolidin-3-yl)-N-[4-(methyl-pyridin-4-yl-amino)-benzyl]-3-(4-trifluoromethyl-phenyl)-acrylamide]: the negative-log IC50 (pIC50) is 7.37.

In turn, `Cc1cc(Nc2ccc(CN(C(=O)/C=C/c3ccc(C(F)(F)F)cc3)C3CCN(Cc4coc(C)n4)CC3)cc2)ccn1` [Example 36, (E)-N-[1-(2-Methyl-oxazol-4-ylmethyl)-piperidin-4-yl]-N-[4-(2-methyl-pyridin-4-ylamino)-benzyl]-3-(4-trifluoromethyl-phenyl)-acrylamide] showed a pIC50 of 6.84.

On to `CC(c1ccccc1)N1CCC(N(Cc2ccc(N(C)c3ccncc3)cc2)C(=O)/C=C/c2ccc(C(F)(F)F)cc2)CC1` (racemic) [Example 30, (±)-(E)-N-[4-(Methyl-pyridin-4-yl-amino)-benzyl]-N-[1-(1-phenyl-ethyl)-piperidin-4-yl]-3-(4-trifluoromethyl-phenyl)-acrylamide], for which the pIC50 was 6.76.

`Cc1cnccc1Nc1cncc(CN(C(=O)/C=C/c2ccc(C(F)(F)F)cc2)C2CCN(C(C)C)CC2)c1` [Example 137, (E)-N-(1-Isopropyl-piperidin-4-yl)-N-[5-(3-methyl-pyridin-4-ylamino)-pyridin-3-ylmethyl]-3-(4-trifluoromethyl-phenyl)-acrylamide formate] showed a pIC50 of 7.33.

The compound `CC(C)N1CCC(N(Cc2cncc(Nc3ccncc3)c2)C(=O)/C=C/c2ccc(C(F)(F)F)cc2)CC1` [Example 141, (E)-N-(1-Isopropyl-piperidin-4-yl)-N-[5-(pyridin-4-ylamino)-pyridin-3-ylmethyl]-3-(4-trifluoromethyl-phenyl)-acrylamide formate] showed a pIC50 of 7.09.

As to `CCN1CCC(N(Cc2ccc(N(C)c3ccncc3)cc2)C(=O)/C=C/c2ccc(C(F)(F)F)cc2)CC1` [Example 7, (E)-N-(1-Ethyl-piperidin-4-yl)-N-[4-(methyl-pyridin-4-yl-amino)-benzyl]-3-(4-trifluoromethyl-phenyl)-acrylamide], the pIC50 is 7.59.

`Cc1ccccc1/C=C/C(=O)N(Cc1ccc(N(C)c2ccncc2)cc1)C1CCN(Cc2ccccc2)CC1` [Example 160, (E)-N-(1-Benzyl-piperidin-4-yl)-N-[4-(methyl-pyridin-4-yl-amino)-benzyl]-3-o-tolyl-acrylamide] showed a pIC50 of 6.78.

For the compound `CN(c1ccncc1)c1ccc(CN(C(=O)/C=C/c2ccc(OC(F)F)cc2)C2CCN(Cc3ccccc3)CC2)cc1` [Example 145, (E)-N-(1-Benzyl-piperidin-4-yl)-3-(4-difluoromethoxy-phenyl)-N-[4-(methyl-pyridin-4-yl-amino)-benzyl]-acrylamide], the pIC50 was 7.16.

`Cc1cc(Nc2ccc(CN(C(=O)/C=C/c3ccc(C(F)(F)F)cc3)C3CCN(Cc4scnc4C)CC3)cc2)ccn1` [Example 35, (E)-N-[4-(2-Methyl-pyridin-4-ylamino)-benzyl]-N-[1-(4-methyl-thiazol-5-ylmethyl)-piperidin-4-yl]-3-(4-trifluoromethyl-phenyl)-acrylamide] gave a negative-log IC50 (pIC50) of 6.61.

With `CC(C)N1CCC(N(Cc2cccc(Nc3ccncc3F)n2)C(=O)/C=C/c2ccc(C(F)(F)F)cc2)CC1` [Example 131, (E)-N-[6-(3-Fluoro-pyridin-4-ylamino)-pyridin-2-ylmethyl]-N-(1-isopropyl-piperidin-4-yl)-3-(4-trifluoromethyl-phenyl)-acrylamide formate], the negative-log IC50 (pIC50) is 6.52.
